Data published in ChEMBL document CHEMBL5113462, “Synthesis and evaluation of inhibitors of Mycobacterium tuberculosis UGM using bioisosteric replacement” (Bioorg Med Chem, 2022).

Legend:
[1] = target: UDP-galactopyranose mutase (Klebsiella pneumoniae, UniProt Q48485); assay: Inhibition of Klebsiella pneumoniae UGM expressed in Escherichia coli BL21(DE3) assessed as dissociation constant by fluorescence polarization assay
[2] = target: UDP-galactopyranose mutase (Mycobacterium tuberculosis) (UniProt P9WIQ1); assay: Inhibition of Mycobacterium tuberculosis UGM expressed in Escherichia coli BL21(DE3) at 500 uM by Fluorescence polarization assay relative to control
Chain of UDP-galactopyranose mutase (Mycobacterium tuberculosis) (P9WIQ1 whole entry, looked up): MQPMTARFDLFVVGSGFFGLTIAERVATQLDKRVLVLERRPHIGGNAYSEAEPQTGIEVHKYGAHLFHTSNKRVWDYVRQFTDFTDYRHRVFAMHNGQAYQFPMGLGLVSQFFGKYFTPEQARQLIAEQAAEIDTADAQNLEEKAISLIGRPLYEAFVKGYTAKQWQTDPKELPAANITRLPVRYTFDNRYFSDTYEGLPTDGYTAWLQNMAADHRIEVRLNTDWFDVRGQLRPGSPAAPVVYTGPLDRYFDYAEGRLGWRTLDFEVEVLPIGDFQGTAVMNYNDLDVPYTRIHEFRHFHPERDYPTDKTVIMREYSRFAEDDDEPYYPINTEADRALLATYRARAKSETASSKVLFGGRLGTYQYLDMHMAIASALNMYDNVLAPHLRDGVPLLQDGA

[3] = target: UDP-galactopyranose mutase (Klebsiella pneumoniae) (UniProt Q48485); assay: Inhibition of Klebsiella pneumoniae UGM expressed in Escherichia coli BL21(DE3) at 500 uM by Fluorescence polarization assay relative to control
Chain of UDP-galactopyranose mutase (Klebsiella pneumoniae) (Q48485 whole entry): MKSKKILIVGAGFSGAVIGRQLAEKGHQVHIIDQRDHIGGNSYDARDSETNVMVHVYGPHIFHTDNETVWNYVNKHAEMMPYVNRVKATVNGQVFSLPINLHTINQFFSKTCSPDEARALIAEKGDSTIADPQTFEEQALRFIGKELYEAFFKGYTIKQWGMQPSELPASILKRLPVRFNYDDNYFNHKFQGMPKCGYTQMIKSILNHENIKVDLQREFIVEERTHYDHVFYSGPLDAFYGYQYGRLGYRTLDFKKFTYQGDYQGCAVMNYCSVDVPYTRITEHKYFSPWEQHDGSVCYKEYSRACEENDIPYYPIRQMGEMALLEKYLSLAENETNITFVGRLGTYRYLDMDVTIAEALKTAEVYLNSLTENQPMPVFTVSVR

[4] = target: T1, UDP-galactopyranose mutase (Mycobacterium tuberculosis, UniProt P9WIQ1); assay: Inhibition of Mycobacterium tuberculosis UGM expressed in Escherichia coli BL21(DE3) assessed as dissociation constant by fluorescence polarization assay
T1 sequence (P9WIQ1 whole entry): as the sequence (P9WIQ1 whole entry, looked up) above

[5] = target: UDP-galactopyranose mutase (Mycobacterium tuberculosis) (UniProt P9WIQ1); assay: Inhibition of Mycobacterium tuberculosis UGM expressed in Escherichia coli BL21(DE3) assessed as formation of UDP-galactopyranose at 500 uM preincubated for 5 min followed by substrate addition and measured after 1 to 3 mins using UDP-galactofuranose as substrate by HPLC analysis relative to control; settings: time 6-8 min
[6] = target: T1, UDP-galactopyranose mutase; assay: Inhibition of Mycobacterium tuberculosis UGM expressed in Escherichia coli BL21(DE3) assessed as dissociation constant by SPR analysis

Chain of UDP-galactopyranose mutase (Klebsiella pneumoniae, UniProt Q48485) (Q48485 whole entry): as the sequence (Q48485 whole entry) above

O=C(/C=C/c1ccccc1)N[C@@H](Cc1ccc(I)cc1)C(=O)O
Kd [1]: 17 µM
inhibition [2]: 77%
inhibition [3]: 60%
Kd [4]: 197 µM
inhibition [5]: 54.6%

O=c1ccn([C@@H]2O[C@H](COP(=O)(O)OP(=O)(O)O)[C@@H](O)[C@H]2O)c(=O)[nH]1 [URIDINE_DIPHOSPHATE]
Kd [1]: 54 µM
inhibition [2]: 86%
inhibition [3]: 63%
Kd [4]: 35 µM
inhibition [5]: 47.6%

O=C(/C=C/c1ccc(O)c(O)c1)O[C@H](Cc1ccc(O)c(O)c1)C(=O)O [ROSMARINIC ACID]
Kd [1]: 69 µM
inhibition [2]: 48%
inhibition [3]: 46%
Kd [4]: 653 µM

O=C(/C=C/c1ccccc1)N[C@@H](Cc1ccc([N+](=O)[O-])cc1)C(=O)O
Kd [1]: 231 µM
inhibition [2]: 62%
inhibition [3]: 59%
Kd [4]: 401 µM
inhibition [5]: 35.2%

O=C(/C=C/c1ccc(O)c(O)c1)N[C@@H](Cc1ccc(O)cc1)C(=O)O
inhibition [2]: 18%

O=C(/C=C/c1ccccc1)N[C@@H](Cc1ccc(O)cc1)C(=O)O
inhibition [2]: 29%

O=C(/C=C/c1ccccc1)N[C@@H](Cc1ccc(Cl)cc1)C(=O)O
Kd [1]: 43 µM
inhibition [2]: 49%
inhibition [3]: 41%
Kd [4]: 358 µM
inhibition [5]: 63.3%

O=C(/C=C/c1ccccc1)N[C@@H](Cc1ccc(F)cc1)C(=O)O
Kd [1]: 156 µM
inhibition [2]: 46%
inhibition [3]: 58%
Kd [4]: 948 µM

COc1cc(/C=C/C(=O)N[C@@H](Cc2ccc(O)c(O)c2)C(=O)O)ccc1O
inhibition [2]: 19%

O=C(/C=C/c1ccccc1)N[C@@H](Cc1ccccc1)C(=O)O
Kd [1]: > 1000 µM
inhibition [2]: 45%
inhibition [3]: 59%
Kd [4]: > 1000 µM

O=C(/C=C/c1ccccc1)N[C@@H](Cc1ccc(Br)cc1)C(=O)O
Kd [1]: 58 µM
Kd [6]: 105 µM
inhibition [2]: 82%
inhibition [3]: 59%
Kd [4]: 63 µM
inhibition [5]: 87%
